Patent US20260193244A1 (Protego Biopharma, Inc., priority 2022, published 2026)

tested on: IRE1-XBP1s (HEK293 T-REx cells stably expressing the XBP1-RLuc splicing reporter); experiment: IRE1-XBP1s activation Assay (XBP1-RLuc splicing reporter, luminescence relative to thapsigargin, with or without IRE1 inhibitor 4μ8C); type: cell-based; conditions: 18 h, compound 10 μM, luminescence as percentage signal relative to thapsigargin (Tg) (500 nM, 18 h)
Experimental: IRE1-XBP1s activation Assay: HEK293 T-REx cells stably expressing the XBP1-RLuc splicing reporter were treated with an IRE1-XBP1s activator provided herein (10 μM) in the presence or absence of the IRE1 active site inhibitor 4μ8C (32 μM) for 18 h. Luminescence was shown as the percentage signal relative to thapsigargin (Tg) (500 nM, 18 h).

| SMILES | activation at 10 µM [%] |
| --- | --- |
| Cc1ccc(O[C@H]2CCCN(C(=O)Cn3cc(NC(=O)C4CC(Oc5cccc(C)n5)C4)cn3)C2)cc1 (some centres unmarked) [Compound 151] | < 30 |
| Cc1ccc(O[C@H]2CCCN(C(=O)Cn3cc(NC(=O)C4CC(Oc5ccncc5)C4)cn3)C2)cc1 (some centres unmarked) [Compound 152] | ≥ 50 |
| Cc1ccc(OCCN(C)C(=O)Cn2cc(NC(=O)c3nc4ccccc4o3)cn2)cc1 [Compound 153] | 30 to 50 |
| Cc1ccc(OCCN(C)C(=O)Cn2cc(NC(=O)C3COc4ccccc4O3)cn2)cc1 (centres unmarked) [Compound 154] | ≥ 50 |
| Cc1ccc(O[C@H]2CCCN(C(=O)Cn3cc(NC(=O)C4COc5ccccc5N4)cn3)C2)cc1 (some centres unmarked) [Compound 155] | < 30 |
| Cc1ccc(OCCN(C)C(=O)Cn2cc(NC(=O)[C@@H]3COc4ccccc4O3)cn2)cc1 [Compound 156] | < 30 |
| COc1ncc(Cl)cc1NCCC(=O)Nc1cnn(CC(=O)N2CCC[C@H](Oc3ccc(C)cc3)C2)c1 [Compound 157] | ≥ 50 |
| COc1ncc(Cl)cc1NCCC(=O)Nc1cnn(CC(=O)N2CCC[C@@H](Oc3ccc(C)cc3)C2)c1 [Compound 158] | < 30 |
| Cc1ccc(O[C@H]2CCCN(C(=O)Cn3cc(NC(=O)CCOc4c(F)ccnc4C(C)C)cn3)C2)cc1 [Compound 159, (S)-3-((4-fluoro-2-isopropylpyridine-3-yl)oxy)-N-(1-(2-oxo-2-(3-(p-tolyloxy)piperidin-1-yl)ethyl)-1H-pyrazol-4-yl)propanamide] | ≥ 50 |
| CC(C)c1cncc(F)c1OCCC(=O)Nc1cnn(CC(=O)N2CCC[C@H](Oc3ccc(OC(F)(F)F)cn3)C2)c1 [Compound 160] | 30 to 50 |
| CC(C)c1cncc(F)c1OCCC(=O)Nc1cnn(CC(=O)N2CCC[C@H](Oc3ccc(C(F)(F)F)cn3)C2)c1 [Compound 161] | ≥ 50 |
| Cc1ccc(OCCN(C)C(=O)Cn2cc(NC(=O)[C@H]3C[C@H](Oc4c(F)cncc4C(C)C)C3)cn2)cc1 [Compound 162] | < 30 |
| Cc1ccc(OC2CCC23CN(C(=O)Cn2cc(NC(=O)C4CC(Oc5c(F)cncc5C(C)C)C4)cn2)C3)cc1 (centres unmarked) [Compound 163] | ≥ 50 |
| Cc1ccc(O[C@H]2CCCN(C(=O)Cn3cc(NC(=O)CCOc4ncncc4N)cn3)C2)cc1 [Compound 164, (S)-3-((5-aminopyrimidin-4-yl)oxy)-N-(1-(2-oxo-2-(3-(p-tolyloxy)piperidin-1-yl)ethyl)-1H-pyrazol-4-yl)propanamide] | ≥ 50 |
| Cc1ccc(O[C@H]2CCCN(C(=O)Cn3cc(NC(=O)CCOc4c(Br)cncc4[N+](=O)[O-])cn3)C2)cc1 [Compound 165] | ≥ 50 |
| Cc1ccc(OCCN(C)C(=O)Cn2cc(NC(=O)C3CCCC3Nc3ccnc(F)n3)cn2)cc1 (centres unmarked) [Compound 166] | < 30 |
| Cc1ccc(OCCN(C)C(=O)Cn2cc(NC(=O)C3CCC3Nc3ccnc(F)n3)cn2)cc1 (centres unmarked) [Compound 167] | 30 to 50 |
| Cc1ccc(OCCN(C)C(=O)Cn2cc(NC(=O)C34CC(Nc5ncc(F)cn5)(C3)C4)cn2)cc1 [Compound 169, 3-[(5-fluoropyrimidin-2-yl)amino]-N-[1-[2-[methyl-[2-(4-methylphenoxy)ethyl]amino]-2-oxo-ethyl]pyrazol-4-yl]bicyclo[1.1.1]pentane-1-carboxamide] | < 30 |
| Cc1ccc(OCCN(C)C(=O)Cn2cc(NC(=O)C3CC(Nc4ncc(F)cn4)C3)cn2)cc1 (centres unmarked) [Compound 170] | < 30 |
| Cc1ccc(OC2CCCCN(C(=O)Cn3cc(NC(=O)CCNc4ccnc(F)n4)cn3)C2)cc1 (centres unmarked) [Compound 171, 3-[(2-fluoropyrimidin-4-yl)amino]-N-[1-[2-[3-(4-methylphenoxy)azepan-1-yl]-2-oxo-ethyl]pyrazol-4-yl]propanamide] | < 30 |
| Cc1ccc(OC2CCCN(C(=O)Cn3cc(NC(=O)CCNc4ccnc(F)n4)cn3)CC2)cc1 (centres unmarked) [Compound 172] | < 30 |
| Cc1c(F)cc(O[C@@H]2CCCN(C(=O)Cn3cc(NC(=O)CCNc4ccnc(F)n4)cn3)C2)cc1F [Compound 173] | 30 to 50 |
| Cc1ccc(OC2CC3CC2N(C(=O)Cn2cc(NC(=O)CCNc4ccnc(F)n4)cn2)C3)cc1 (centres unmarked) [Compound 174] | < 30 |
| Cc1ccc(OC2CCC3(C2)CN(C(=O)Cn2cc(NC(=O)CCNc4ccnc(F)n4)cn2)C3)cc1 (centres unmarked) [Compound 175] | < 30 |
| Cc1ccc(O[C@@H]2CCCN(C(=O)Cn3cc(NC(=O)CCNc4ccnc(F)n4)cn3)C2)cc1 [Compound 176] | 30 to 50 |

| SMILES | activation at 10 µM [%] |
| --- | --- |
| Cc1ccc(OC2CCC23CN(C(=O)Cn2cc(NC(=O)CCNc4ccnc(F)n4)cn2)C3)cc1 (centres unmarked) [Compound 177] | ≥ 50 |
| Cc1ccc(O[C@H]2CCCN(C(=O)Cn3cc(NC(=O)CCNc4ccnc(F)n4)cn3)C2)cc1 [Compound 178] | ≥ 50 |
| O=C(CCNc1ccnc(F)n1)Nc1cnn(CC(=O)N2CCC[C@H](Oc3ccc(C(F)F)cc3)C2)c1 [Compound 179] | ≥ 50 |
| Cc1c(F)cc(O[C@H]2CCCN(C(=O)Cn3cc(NC(=O)CCNc4ccnc(F)n4)cn3)C2)cc1F [Compound 180] | ≥ 50 |
| Cc1ccc(OC2CC3(C2)CN(C(=O)Cn2cc(NC(=O)CCNc4ccnc(F)n4)cn2)C3)cc1 [Compound 181] | < 30 |
| Cc1ccc(O[C@H]2CCCN(C(=O)Cn3cc(NC(=O)CCNc4c(F)cncc4Cl)cn3)C2)cc1 [Compound 183] | ≥ 50 |
| Cc1ccc(O[C@@H]2CCCN(C(=O)Cn3cc(NC(=O)CCNc4c(F)cncc4Cl)cn3)C2)cc1 [Compound 184] | ≥ 50 |
| Cc1ccc(O[C@H]2CCCN(C(=O)Cn3cc(NC(=O)[C@@H]4COc5ccccc5O4)cn3)C2)cc1 [Compound 185] | < 30 |
| O=C(CCNc1ccnc(F)n1)Nc1cnn(CC(=O)N2CCC[C@@H](Oc3ccc(C(F)F)cc3)C2)c1 [Compound 187] | < 30 |
| O=C(Nc1cnn(CC(=O)N2CCC[C@H](Oc3ccc(C(F)(F)F)cn3)C2)c1)[C@H]1COc2ccccc2O1 [Compound 188, (R)—N-(1-(2-oxo-2-((S)-3-((5-(trifluoromethyl)pyridin-2-yl)oxy)piperidin-1-yl)ethyl)-1H-pyrazol-4-yl)-2,3-dihydrobenzo[b][1, 4]dioxine-2-carboxamide] | < 30 |
| O=C(Nc1cnn(CC(=O)N2CCC[C@H](Oc3ccc(C(F)(F)F)cn3)C2)c1)[C@@H]1COc2ccccc2O1 [Compound 189] | < 30 |
| CN(CCOc1ccc(C(F)(F)F)cn1)C(=O)Cn1cc(NC(=O)C2CNc3ccccc3O2)cn1 (centres unmarked) [Compound 191] | < 30 |
| CN(CCOc1ccc(C(F)(F)F)cn1)C(=O)Cn1cc(NC(=O)[C@H]2COc3ccccc3O2)cn1 [Compound 192] | 30 to 50 |
| Cc1ccc(OC2CCC23CN(C(=O)Cn2cc(NC(=O)C4CNc5ccccc5O4)cn2)C3)cc1 (centres unmarked) [Compound 193] | < 30 |
| Cc1ccc(OC2CCC23CCN(C(=O)Cn2cc(NC(=O)CCOc4cccc(C)n4)cn2)C3)cc1 (centres unmarked) [Compound 195, 3-((6-methylpyridin-2-yl)oxy)-N-(1-(2-oxo-2-(1-(p-tolyloxy)-6-azaspiro[3.4]octan-6-yl)ethyl)-1H-pyrazol-4-yl)propanamide] | ≥ 50 |
| Cc1ccc(OC2CCCC23CN(C(=O)Cn2cc(NC(=O)CCOc4cccc(C)n4)cn2)C3)cc1 (centres unmarked) [Compound 196] | ≥ 50 |
| Cc1ccc(OC2CCC23CN(C(=O)Cn2cc(NC(=O)C4COc5ccccc5O4)cn2)C3)cc1 (centres unmarked) [Compound 197] | < 30 |
| Cc1ccc(OC2CCCC23CN(C(=O)Cn2cc(NC(=O)C4CNc5ccccc5O4)cn2)C3)cc1 (centres unmarked) [Compound 198, N-(1-(2-oxo-2-(5-(p-tolyloxy)-2-azaspiro[3.4]octan-2-yl)ethyl)-1H-pyrazol-4-yl)-3,4-dihydro-2H-benzo[b][1, 4]oxazine-2-carboxamide] | < 30 |
| Cc1ccc(OC2CCCC23CN(C(=O)Cn2cc(NC(=O)C4COc5ccccc5O4)cn2)C3)cc1 (centres unmarked) [Compound 199] | < 30 |
| [2H]C([2H])([2H])c1ccc(OCCN(C)C(=O)Cn2cc(NC(=O)C3COc4ccccc4O3)cn2)cc1 (centres unmarked) [Compound 200] | ≥ 50 |
| [2H]C([2H])([2H])c1ccc(OCCN(C)C(=O)Cn2cc(NC(=O)C3CNc4ccccc4O3)cn2)cc1 (centres unmarked) [Compound 201] | ≥ 50 |
| Cc1ccc(OCCN(C)C(=O)Cn2cc(NC(=O)[C@H]3CCc4ccccc4O3)cn2)cc1 [Compound 202] | 30 to 50 |
| Cc1ccc(OCCN(C)C(=O)Cn2cc(NC(=O)C3CNCC3Nc3ccnc(F)n3)cn2)cc1 (centres unmarked) [Compound 203] | < 30 |
| Cc1ccc(OCCN(C)C(=O)Cn2cc(N(C)C(=O)C3=C(c4ccccc4)CCCC3)cn2)cc1 [Compound 205] | < 30 |
| Cc1ccc(OCCN(C)C(=O)Cn2cc(NC(=O)OC3CCCNC3)cn2)cc1 (centres unmarked) [Compound 206] | < 30 |
